{"source": "patent US20150168420A1", "about": "“BIOORTHOGONAL CHEMICAL INDUCERS OF REVERSIBLE DIMERIZATION FOR CONTROL OF PROTEIN FUNCTION IN CELLS” (MAX-PLANCK-GESELLSCHAFT ZUR FÖRDERUNG DER WISSENSCHAFTEN …, priority 2012, published 2015)", "key": {"Beclin1": {"tested_on": "Beclin1", "details": "starved EGFP-LC3 MCF-7 cells, 1 μM"}, "[1]": {"molecular_target": "Citrine-eDHFR-PM and Cherry-FKBP WT (Escherichia coli, UniProt P0ABQ4)", "assay": "Translocation to plasma membrane and FLIM in MCF-7 cells, FKBP WT", "format": "cell-based", "details": "2 μM, 2 h"}, "wild type FKBP": {"molecular_target": "wild type FKBP (Homo sapiens, UniProt P62942)", "details": "cited from earlier work"}, "FKBP(F36V)": {"molecular_target": "FKBP(F36V) (Homo sapiens, UniProt P62942, F37V)", "details": "cited from earlier work"}}, "note": "Entries after “also recorded” stand apart in the source; their conditions may differ."}
{"smiles": "COc1cc(Cc2cnc(N)nc2N)cc(OC)c1OC", "note": "[TMP, 5-(3,4,5-trimethoxybenzyl)pyrimidine-2,4-diamine]", "values": [{"measurement": "autophagy (LC3 puncta) on Beclin1 knock off / knock on", "setting": "Beclin1", "value": "Recovery of autophagy"}]}
{"smiles": "CCC(C)(C)C(=O)C(=O)N1CCCCC1C(=O)O[C@H](CCc1ccc(OC)c(OC)c1)c1cccc(NC(=O)CCC(=O)NCCCOCCOCCOCCCNC(=O)COc2c(OC)cc(Cc3cnc(N)nc3N)cc2OC)c1", "note": "(some centres unmarked) [SLF-TMP]", "values": [{"measurement": "translocation of cognate binding domain FKBP WT to the plasma membrane", "setting": "[1]", "value": "cannot induce translocation"}]}
{"smiles": "CCC(C(=O)N1CCCCC1C(=O)O[C@H](CCc1ccc(OC)c(OC)c1)c1cccc(OCC(=O)NCCCOCCOCCOCCCNC(=O)COc2c(OC)cc(Cc3cnc(N)nc3N)cc2OC)c1)c1cc(OC)c(OC)c(OC)c1", "note": "(some centres unmarked) [SLF′-TMP]", "values": [{"measurement": "autophagy (LC3 puncta) on Beclin1 knock off / knock on", "setting": "Beclin1", "value": "Inhibition of autophagy"}]}
{"smiles": "CCC(C)(C)C(=O)C(=O)N1CCCC[C@H]1C(=O)O[C@H](CCc1ccc(OC)c(OC)c1)c1cccc(OCC(=O)O)c1", "note": "[SLF]", "values": [{"measurement": "Kd", "setting": "wild type FKBP; read-out: Kd for endogenous FKBP", "value": "10 to 20", "unit": "nM"}, {"measurement": "affinity to FKBP(F36V)", "setting": "FKBP(F36V); in words", "value": "low affinity"}]}
{"smiles": "CCC(C(=O)N1CCCCC1C(=O)O[C@H](CCc1ccc(OC)c(OC)c1)c1cccc(OCC(=O)O)c1)c1cc(OC)c(OC)c(OC)c1", "note": "(some centres unmarked) [SLF′]", "values": [{"measurement": "binding to naturally occurring (unmutated) FKBP", "setting": "wild type FKBP; in words", "value": "does not bind at all; also recorded: very low affinity"}, {"measurement": "fold lower affinity for wild type FKBP than for mutant FKBP(F36V)", "setting": "wild type FKBP; wild type versus F36V", "value": "> 1000", "unit": "fold"}, {"measurement": "Kd", "setting": "FKBP(F36V); read-out: Kd for binding domain of FKBP(F36V)", "value": 0.094, "unit": "nM"}]}
